The assay has as its system B6C3F1 mice, B16 melanoma ip, median survival T/C. As to the kind of experiment: NCI In Vivo Anticancer Drug Screen. Data for tumor model B16 Melanoma (intraperitoneal) in B6C3F1 mice. The conditions noted are these: endpoint: median survival time, higher = longer survival. Summed up: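 Tumor-bearing mice received test compound; a separate group got vehicle only. Survival was then compared, with results reported as treated over control.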

Where [1] appears, read: dose: 12.5 mg/kg/injection, schedule: Q01DX009 (ip), vehicle: saline.
Where [2] appears, read: dose: 25.0 mg/kg/injection, schedule: Q01DX009 (ip), vehicle: saline.
The mark [3] stands for this setting: dose: 6.25 mg/kg/injection, schedule: Q01DX009 (ip), vehicle: saline with Tween-80.
Setting [4] is: dose: 12.5 mg/kg/injection, schedule: Q01DX009 (ip), vehicle: saline with Tween-80.
Where [5] appears, read: dose: 25.0 mg/kg/injection, schedule: Q01DX009 (ip), vehicle: saline with Tween-80.
Where [6] appears, read: dose: 50.0 mg/kg/injection, schedule: Q01DX009 (ip), vehicle: saline with Tween-80.
Where [7] appears, read: dose: 100.0 mg/kg/injection, schedule: Q01DX009 (ip), vehicle: saline with Tween-80.
[8] abbreviates: dose: 200.0 mg/kg/injection, schedule: Q01DX009 (ip), vehicle: saline with Tween-80.
[9] abbreviates: dose: 400.0 mg/kg/injection, schedule: Q01DX009 (ip), vehicle: saline with Tween-80.
Where [10] appears, read: dose: 0.06 mg/kg/injection, schedule: Q01DX009 (ip), vehicle: saline.
The mark [11] stands for this setting: dose: 0.12 mg/kg/injection, schedule: Q01DX009 (ip), vehicle: saline.
The mark [12] stands for this setting: dose: 0.25 mg/kg/injection, schedule: Q01DX009 (ip), vehicle: saline.
Setting [13] is: dose: 0.5 mg/kg/injection, schedule: Q01DX009 (ip), vehicle: saline.
Setting [14] is: dose: 1.0 mg/kg/injection, schedule: Q01DX009 (ip), vehicle: saline.

The structures appear in SMILES notation. Several values for one entry are separate records, joined by “and”; a condition that tells them apart may be missing. Identical values can stand only once. Inconclusive results and toxic doses are left out.

Experimental findings from PubChem BioAssay AID200 (DTP/NCI, 2004) are described below.

Consider `C=C(OC1C(C)=C2C(C1OC(=O)CCCCCCC)C(C)(OC(C)=O)CC(OC(=O)CCC)C1(O)C2OC(=O)C1(C)O)/C(C)=C/C` (stereo not drawn), for which the T/C is 99 % of control (dose: 0.09 mg/kg/injection, schedule: Q01DX009 (ip), vehicle: Klucel (hydroxypropylcellulose) (HPC)); 114 % of control (dose: 0.18 mg/kg/injection, schedule: Q01DX009 (ip), vehicle: Klucel (hydroxypropylcellulose) (HPC)); 102 % of control (dose: 0.37 mg/kg/injection, schedule: Q01DX009 (ip), vehicle: Klucel (hydroxypropylcellulose) (HPC)); 114 % of control (dose: 0.75 mg/kg/injection, schedule: Q01DX009 (ip), vehicle: Klucel (hydroxypropylcellulose) (HPC)).

With `CCCC(=O)Nc1ncnc2c1ncn2C1OC2COP(=O)(O)OC2C1OC(=O)CCC` (stereo not drawn), the T/C under setting [1] was 102 % of control (2×) and 103 % of control; the T/C under setting [2] is 95 % of control and 100 % of control and 104 % of control; the T/C (dose: 50.0 mg/kg/injection, schedule: Q01DX009 (ip), vehicle: saline) is 93 % of control and 102 % of control (2×); the T/C (dose: 100.0 mg/kg/injection, schedule: Q01DX009 (ip), vehicle: saline) was 94 % of control and 101 % of control and 102 % of control; the T/C (dose: 200.0 mg/kg/injection, schedule: Q01DX009 (ip), vehicle: saline) is 112 % of control and 88 % of control and 100 % of control; the T/C (dose: 400.0 mg/kg/injection, schedule: Q01DX009 (ip), vehicle: saline) was 88 % of control and 94 % of control and 103 % of control.

Take `CC(C)=CCC/C(C)=C\C=N\NS(=O)(=O)c1ccc([N+](=O)[O-])cc1`: the T/C is, setting by setting: under setting [3], 89 % of control; under setting [4], 93 % of control; under setting [5], 100 % of control; under setting [6], 94 % of control.

Turning to `Nc1ccc(S(N)(=O)=O)cc1`, the T/C under setting [4] is 94 % of control; the T/C under setting [5] was 86 % of control and 99 % of control; the T/C under setting [6] is 98 % of control and 100 % of control; the T/C under setting [7] is 105 % of control and 108 % of control; the T/C under setting [8] is 114 % of control and 101 % of control; the T/C under setting [9] was 90 % of control and 99 % of control.

With `CC(C)C1C(=O)N2CCCC2C2(O)OC(NC(=O)C3C=C4c5cccc6[nH]cc(c56)CC4N(C)C3)(C(C)C)C(=O)N12` (stereo not drawn), the T/C (dose: 8.0 mg/kg/injection, schedule: Q01DX009 (ip), vehicle: Klucel (hydroxypropylcellulose) (HPC)) is 106 % of control; the T/C (dose: 16.0 mg/kg/injection, schedule: Q01DX009 (ip), vehicle: Klucel (hydroxypropylcellulose) (HPC)) was 109 % of control; the T/C (dose: 32.0 mg/kg/injection, schedule: Q01DX009 (ip), vehicle: Klucel (hydroxypropylcellulose) (HPC)) was 117 % of control; the T/C (dose: 64.0 mg/kg/injection, schedule: Q01DX009 (ip), vehicle: Klucel (hydroxypropylcellulose) (HPC)) is 105 % of control.

In the case of `CCCCCCCCCCCCCCCC[N+]1(C)CCN(SN2CC[N+](C)(CCCCCCCCCCCCCCCC)CC2)CC1`, the T/C was 96 % of control under setting [1], 100 % of control under setting [2] and 89 % of control under setting [6].

On to `Nc1cc(=O)[nH][nH]1`, for which the T/C is 91 % of control under setting [7], 96 % of control under setting [8] and 98 % of control under setting [9].

For the molecule `CO[C@H](C(=O)[C@@H](O)[C@@H](C)O)[C@@H]1Cc2cc3cc(OC4CC(OC5CC(O)C(O)C(C)O5)C(O)C(C)O4)c(C)c(O)c3c(O)c2C(=O)[C@H]1OC1CC(OC2CC(OC3CC(C)(O)C(O)C(C)O3)C(O)C(C)O2)C(O)C(C)O1` (stereo partly drawn), the T/C is 111 % of control under setting [10]; 101 % of control under setting [11]; 101 % of control under setting [12]; 117 % of control under setting [13]; 105 % of control under setting [14]; 113 % of control (dose: 2.0 mg/kg/injection, schedule: Q01DX009 (ip), vehicle: saline).

On to `CCN(CC)CCNc1ccc(C)c2sc3ccc(O)cc3c(=O)c12`, for which the T/C was 150 % of control under setting [6] and 191 % of control under setting [7].

Turning to `N[C@@H](C[C@H]1CCC(=O)[C@@H]2O[C@H]12)C(=O)O`, the T/C runs as follows: (dose: 25.0 mg/kg/injection, schedule: Q01DX009 (ip), vehicle: saline + alcohol) 99 % of control; (dose: 50.0 mg/kg/injection, schedule: Q01DX009 (ip), vehicle: saline + alcohol) 110 % of control; (dose: 400.0 mg/kg/injection, schedule: Q01DX009 (ip), vehicle: saline + alcohol) 155 % of control.

Take `CC(NC(=O)OCc1ccccc1)C(=O)NC(C(=O)O)C(C)O` (stereo not drawn): the T/C (dose: 100.0 mg/kg/injection, schedule: Q01DX009 (ip), vehicle: Klucel (hydroxypropylcellulose) (HPC)) is 98 % of control and the T/C (dose: 200.0 mg/kg/injection, schedule: Q01DX009 (ip), vehicle: Klucel (hydroxypropylcellulose) (HPC)) was 106 % of control.

Regarding `CSCS(=O)C[C@H](CO)NC(=O)/C=C/c1c(C)[nH]c(=O)[nH]c1=O` (stereo partly drawn), the T/C by setting is: (dose: 0.03 mg/kg/injection, schedule: Q01DX009 (ip), vehicle: saline) 100 % of control and 104 % of control; under setting [10], 112 % of control and 102 % of control; under setting [11], 98 % of control and 102 % of control; under setting [12], 118 % of control and 98 % of control; under setting [13], 102 % of control; under setting [14], 98 % of control.

On to `S=C(N/N=C1/CCCC/C1=N/NC(=S)N1CCOCC1)N1CCOCC1`, for which the T/C was 124 % of control (dose: 1.56 mg/kg/injection, schedule: Q01DX009 (ip), vehicle: saline with Tween-80); 116 % of control (dose: 3.12 mg/kg/injection, schedule: Q01DX009 (ip), vehicle: saline with Tween-80); 119 % of control under setting [3].

On to `O=Cc1c(CO)cc(O)c(O)c1O`, for which the T/C by setting is: (dose: 3.13 mg/kg/injection, schedule: Q01DX009 (ip), vehicle: Klucel (hydroxypropylcellulose) (HPC)) 115 % of control; (dose: 6.25 mg/kg/injection, schedule: Q01DX009 (ip), vehicle: Klucel (hydroxypropylcellulose) (HPC)) 104 % of control; (dose: 12.5 mg/kg/injection, schedule: Q01DX009 (ip), vehicle: Klucel (hydroxypropylcellulose) (HPC)) 89 % of control; (dose: 25.0 mg/kg/injection, schedule: Q01DX009 (ip), vehicle: Klucel (hydroxypropylcellulose) (HPC)) 88 % of control.

`NC(=O)/C=C/C(N)=O`: the T/C runs as follows: under setting [4], 113 % of control; under setting [5], 109 % of control; under setting [6], 89 % of control.

As for `COc1cc2c(c(OC)c1OC)-c1cccc(=O)cc1C(NC(C)=O)CC2` (stereo not drawn), the T/C (dose: 1.25 mg/kg/injection, schedule: Q01DX009 (ip), vehicle: water) is 98 % of control; the T/C (dose: 2.5 mg/kg/injection, schedule: Q01DX009 (ip), vehicle: saline) was 97 % of control; the T/C (dose: 2.5 mg/kg/injection, schedule: Q01DX009 (ip), vehicle: water) was 102 % of control; the T/C (dose: 5.0 mg/kg/injection, schedule: Q01DX009 (ip), vehicle: saline) was 100 % of control; the T/C (dose: 5.0 mg/kg/injection, schedule: Q01DX009 (ip), vehicle: water) was 97 % of control; the T/C (dose: 10.0 mg/kg/injection, schedule: Q01DX009 (ip), vehicle: saline) was 116 % of control. Further, the T/C (dose: 10.0 mg/kg/injection, schedule: Q01DX009 (ip), vehicle: water) is 96 % of control; the T/C (dose: 20.0 mg/kg/injection, schedule: Q01DX009 (ip), vehicle: saline) was 99 % of control; the T/C (dose: 20.0 mg/kg/injection, schedule: Q01DX009 (ip), vehicle: water) was 103 % of control; the T/C (dose: 40.0 mg/kg/injection, schedule: Q01DX009 (ip), vehicle: saline) was 103 % of control.

`C=C(C)CNC1=C(C)C(=O)C2=C(C1=O)[C@H](COC(N)=O)[C@]1(OC)[C@@H]3N[C@@H]3CN21`: the T/C is, setting by setting: (dose: 0.5 mg/kg/injection, schedule: Q01DX001 (ip), vehicle: distilled water + Tween-80) 122 % of control; (dose: 4.0 mg/kg/injection, schedule: Q01DX001 (ip), vehicle: distilled water + Tween-80) 160 % of control; (dose: 8.0 mg/kg/injection, schedule: Q01DX001 (ip), vehicle: distilled water + Tween-80) 186 % of control; (dose: 16.0 mg/kg/injection, schedule: Q01DX001 (ip), vehicle: distilled water + Tween-80) 226 % of control.
